Experiments:
[1] = target: T1, NL-hA2BAR (Homo sapiens, UniProt P29275); assay: NanoBRET saturation ligand-binding assay, NL-hA2BAR
T1 construct: expressed in transfected cells
T1 sequence (P29275 1-332): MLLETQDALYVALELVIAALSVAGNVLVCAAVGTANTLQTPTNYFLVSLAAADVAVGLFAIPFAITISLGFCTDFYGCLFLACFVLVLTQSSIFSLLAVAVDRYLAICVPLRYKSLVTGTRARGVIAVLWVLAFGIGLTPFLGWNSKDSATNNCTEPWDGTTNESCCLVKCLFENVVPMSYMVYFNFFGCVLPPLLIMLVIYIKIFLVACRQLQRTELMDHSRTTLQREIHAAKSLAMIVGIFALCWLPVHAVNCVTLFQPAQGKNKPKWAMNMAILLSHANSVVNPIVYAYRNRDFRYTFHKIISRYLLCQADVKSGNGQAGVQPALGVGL
Experimental: Probes 11 and 12 were further evaluated for their ability to bind the other three adenosine receptor subtypes (NL-A2AAR, NL-A2BAR, and NL-A3AR), and their ligand-binding properties were quantified in the NanoBRET saturation and inhibition binding assays, respectively (Table 1 and Figure 4).
NanoBRET binding assay. All NanoBRET experiments were performed in white flat […]
37 °C for kinetic binding experiments. Emissions were read at 420 nm (80 nm bandpass; […]
the SulfoCy5-labelled probe. […]
nm emission by the 420 nm emission. The term “raw BRET ratio” refers to the unprocessed data as no background ratio has been subtracted. In all NanoBRET binding […]
competitive antagonist selective for the adenosine receptor under investigation […]
MRS1220 for the A3AR). HEK293T cells stably/transiently expressing Nluc-AR were […]
were incubated for 1 h at 37 °C. […]
NanoBRET saturation binding assay. Total and nonspecific saturation binding curves were fit simultaneously using the following equation:
BRET ratio = Bmax[B] + M(B) + C […]
Uninhibited specific binding = 100 ― 100 x [A]

[2] = test system: nontransfected HEK293 cells; assay: Confocal assessment of non-specific labelling in non-transfected HEK293T cells; type: cell-based, human; conditions: 125 nM; cells do not express the A1AR
Excerpt: Having investigated the molecular pharmacology of 11 and 12 in a series of in vitro assays, we sought to apply the LD probes for studying A1AR localization and dynamics in living cells. To this end, LD probes 11 and 12 were initially used in confocal microscopy studies to test their ability to label and allow visualization of the SNAP-hA1AR in living HEK293T cells (Figure 6). […] With both probes, the fluorescence labeling colocalized with SNAP-hA1AR labeled with AF488 (Figure 6A,C top frames).
Supplementary Figures: Pharmacology
Figure S1. Fluorescence spectra of SulfoCy5-conjugated methyltetrazine in the absence or in the presence of probe 12 (PEG-TCO). “Turn-on” type reaction of tetrazine (Met-TetSulfoCy5) with PEGylated trans-cyclooctene (PEG-TCO)-labelled 12. Fluorescence excitation and emission spectra measured in HBSS with the corresponding tetrazineSulfoCy5 [100 nM] without, then with 12 (PEG-TCO) [1 µM] (allowed to react for 10 min prior detection). Exc maxima (Met-TetSulfoCy5 + PEG-TCO) = 1.80-fold increase compared to Met-TetSulfoCy5 alone; Em maxima (Met-TetSulfoCy5 + TCO) = 1.40-fold; Excitation and emission fluorescence spectra (1 nm step width) were measured were recorded on a CLARIOstar plate reader (BMG Labtech).
Figure S2. Assessment of 11 non-specific labelling performed in non-transfected live HEK293T cells. Left hand frame corresponds to SulfoCy5 channel. […]

[3] = target: T2, NL-hA1AR (Homo sapiens, UniProt P30542); assay: NanoBRET competition ligand-binding assay (CA200645 tracer), NL-hA1AR
T2 construct: expressed in transfected cells
T2 sequence (P30542 1-326): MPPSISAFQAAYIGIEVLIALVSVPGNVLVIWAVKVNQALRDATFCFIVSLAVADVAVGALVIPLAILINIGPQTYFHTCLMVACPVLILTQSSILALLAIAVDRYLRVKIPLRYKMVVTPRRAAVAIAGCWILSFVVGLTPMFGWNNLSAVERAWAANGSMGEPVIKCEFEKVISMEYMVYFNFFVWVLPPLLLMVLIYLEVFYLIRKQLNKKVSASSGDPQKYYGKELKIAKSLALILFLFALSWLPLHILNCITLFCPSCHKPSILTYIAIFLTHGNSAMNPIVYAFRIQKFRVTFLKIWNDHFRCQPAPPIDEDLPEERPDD

Structure (SMILES) | Kd ([1]; HEK293T cells stably expressing NL-hA2BAR, read-out: affinity values pKD, NL-hA2BAR (converted)) [nM] | BRET signal detected at NL-A2BAR ([1]; concentrations tested 0–500 nM) | fluorescent signal in nontransfected HEK293 cells [2] | Ki ([3]; CA200645 (25 nM) tracer, HEK293T cells, mean ± SEM, read-out: affinity values pKi, NL-hA1AR (converted)) [nM] | greater affinity for NL-A1AR over NL-A2AAR (competition binding) ([3]; selectivity from pKi values) [fold] | greater affinity for NL-A1AR over NL-A2BAR (competition binding) ([3]; selectivity from pKi values) [fold] | greater affinity for NL-A1AR over NL-A3AR (competition binding) ([3]; selectivity from pKi values) [fold]
CCCCn1c(=O)c2[nH]c(C34CCC(C(=O)NCCNC(=O)CCNC(=O)c5ccc(OC(=O)CCCCC[N+]6=C(/C=C/C=C/C=C7/N(C)c8ccc(S(=O)(=O)O)cc8C7(C)C)C(C)(C)c7cc(S(=O)(=O)[O-])ccc76)c(F)c5)(CC3)CC4)nc2n(CCCC)c1=O [Compound 11, 1-(6-(4-((3-((2-(4-(1,3-Dibutyl-2,6-dioxo-2,3,6,7-tetrahydro-1H-purin-8-yl)bicyclo[2.2.2]octane-1-carboxamido)ethyl)amino)-3-oxopropyl)carbamoyl)-2-fluorophenoxy)-6-oxohexyl)-3,3-dimethyl-2-((1E,3E)-5-((E)-1,3,3-trimethyl-5-sulfoindolin-2-ylidene)penta-1,3-dien-1-yl)-3H-indol-1-ium-5-sulfonate] | > 1000 | minimal BRET signal | did not produce any detectable fluorescent signal | – | – | – | –
CCCCn1c(=O)c2[nH]c(C34CCC(C(=O)NCCNC(=O)CCNC(=O)c5ccc(OC(=O)CCC(=O)NCCOCCOCCNC(=O)O[C@H]6CC/C=C/CCC6)c(F)c5)(CC3)CC4)nc2n(CCCC)c1=O [Compound 12, 4-((3-((2-(4-(1,3-Dibutyl-2,6-dioxo-2,3,6,7-tetrahydro-1H-purin-8-yl)bicyclo[2.2.2]octane-1-carboxamido)ethyl)amino)-3-oxopropyl)carbamoyl)-2-fluorophenyl (R,E)-1-(Cyclooct-4-en-1-yloxy)-1,12-dioxo-5,8-dioxa-2,11-diazapentadecan-15-oate] | – | – | – | 13.5 | 104 | 61 | 857
